Where two headings read alike, the source gives them in different places.

For series [1], the system named is Herpes simplex type 1 virus (HFEM strain). Briefly: Plaque reduction assay in virus-infected Vero cells (agarose overlay, 4 days). Format: cell-based. To be noted: Human alphaherpesvirus 1, 96 h, concentration causing a 50% reduction in the number of virus plaques, 4 days incubation, read-out: PDD50 (the source's name). The method, then:
(§1) Vero (African Green Monkey Kidney) cells were grown to confluence in 24 well multidishes, each well being 1.6 cm in diameter. The cells were infected with Herpes simplex type 1 virus (HFEM strain) and overlaid with 0.5 mL of 0.9% agarose (w/v) in maintenance medium. Test compounds prepared in maintenance medium in concentrations ranging from […] in half-log dilution steps, were added in 0.5 mL volume. The virus infected cultures were then incubated at 37^0CC for 4 days before fixing in 4% formaldehyde solution and staining with carbolfuchsin.

A short description of series [2]: Cytotoxicity observed in the plaque reduction assay cultures. The series is classed as cell-based. To be noted: african green monkey, vero cells; minimum concentration of test compound which caused cytotoxicity; virus-infected Vero cultures, 4 days; read-out: MTD. How it is done: as §1
In general terms: Plaques are areas of infected cells; plaque reduction assays count them against a control.

Consider `CC(=O)O[C@H]1C[C@H](n2cc(/C=C/Br)c(=O)[nH]c2=O)O[C@@H]1COC(=O)OC[C@H]1O[C@@H](n2cc(/C=C/Br)c(=O)n(C(C)=O)c2=O)C[C@@H]1OC(C)=O` [Example 2, 3',3'-Q-3-Triacetyl-bis-[5-(E-2-bromovinyl)-2'-deoxyuridin-5'-yl] carbonate], for which the IC50 stood at 15100 nM in series [1] (molar units) and 12.4 µg/mL in series [1]. In addition, in series [2], the MCC at 96 h was 100 µg/mL.
On the same counts, the results for `CC(=O)O[C@H]1C[C@H](n2cc(/C=C/Br)c(=O)[nH]c2=O)O[C@@H]1COC(=O)OC[C@H]1O[C@@H](n2cc(/C=C/Br)c(=O)[nH]c2=O)C[C@@H]1OC(C)=O` [Example 3, bis-[3'-O-Acetyl-5-(E-2-bromovinyl)-2'-deoxyuridin-5'-yl] carbonate] are 10900 nM, 8.5 µg/mL and 100 µg/mL.
Consider `O=C(OC[C@H]1O[C@@H](n2cc(/C=C/Br)c(=O)[nH]c2=O)C[C@@H]1O)OC[C@H]1O[C@@H](n2cc(/C=C/Br)c(=O)[nH]c2=O)C[C@@H]1O` [Example 1, bis-[5-(E-2-Bromovinyl)-2'-deoxyuridin-5'-yl] carbonate], for which the IC50 in series [1] (molar units) turned out to be 2100 nM; in series [1], 1.5 µg/mL. Also, in series [2], the MCC at 96 h was found to be 100 µg/mL.
`O=C(CCCCCCCCC(=O)OC[C@H]1O[C@@H](n2cc(/C=C/Br)c(=O)[nH]c2=O)C[C@@H]1O)OC[C@H]1O[C@@H](n2cc(/C=C/Br)c(=O)[nH]c2=O)C[C@@H]1O` [Example 7, bis-[5-(E-2-Bromovinyl)-2'-deoxyuridin-5'-yl] sebacate]: the IC50 in series [1] (molar units) was determined as 140 nM; in series [1] it was 0.12 µg/mL. For the same compound, in series [2], the MCC at 96 h is 100 µg/mL.
For `O=C(n1c(=O)c(/C=C/Br)cn([C@H]2C[C@H](O)[C@@H](CO)O2)c1=O)n1c(=O)c(/C=C/Br)cn([C@H]2C[C@H](O)[C@@H](CO)O2)c1=O` [Example 5, 3,3-Carbonyl-bis-[5-(E-2-bromovinyl)-2'-deoxyuridine]], in that order: 100 nM, 0.07 µg/mL and 100 µg/mL.
Take `O=C(O[C@H]1C[C@H](n2cc(/C=C/Br)c(=O)[nH]c2=O)O[C@@H]1CO)O[C@H]1C[C@H](n2cc(/C=C/Br)c(=O)[nH]c2=O)O[C@@H]1CO` [Example 4, bis-[5-(E-2-Bromovinyl)-2'-deoxyuridin-3'-yl] carbonate]: the IC50 in series [1] (molar units) was 500 nM; in series [1], 0.34 µg/mL. Further, the MCC at 96 h in series [2] was 100 µg/mL.
Regarding `O=C(CCC(=O)OC[C@H]1O[C@@H](n2cc(/C=C/Br)c(=O)[nH]c2=O)C[C@@H]1O)OC[C@H]1O[C@@H](n2cc(/C=C/Br)c(=O)[nH]c2=O)C[C@@H]1O` [Example 6, bis-[5-(E-2-Bromovinyl)-2'-deoxyuridin-5'-yl] succinate], the IC50 is 6400 nM in series [1] (molar units) and 4.8 µg/mL in series [1]. Moreover, the MCC at 96 h in series [2] worked out at 100 µg/mL.

(Values after EP0095292A1, “5-(2-halogenovinyl)-2'-deoxyuridine derivatives, processes for their preparation, pharmaceutical compositions containing them, and their use in treating viral infections"” (BEECHAM GROUP PLC, priority 1982, dated 1983).)
